What was measured:
[1] = tested on: 4HBA-tolerant Str, Gen and Rif mutants of P. putida KH146-2; format: cell-based, Pseudomonas putida; settings: for Tolerance of mutants relative to wild-type: Str mutants and Rif mutants tested, in words
Method: (§1) Pseudomonas putida KH146-2 was originally isolated from soil for the capability of growing in the presence of 4-hydroxybenzoate (Chen et al., ((1998) Res Communs Biochem and Cell & Mol Biol 2: 253–274)). HBM medium consists of 50 mM sodium potassium phosphate buffer (pH6.8), 0.1% (NH4)2SO4 and Hutner's base. Hutner's base cotained (per liter) nitrilotriacetic acid, 200 mg; CaCl2.2H2O, 67 mg; (NH4)6Mo7O24.4H2O, 185 μg; MgSO4, 289 mg; EDTA, 2.5 mg; ZnSO4.7H2O, 11 mg; FeSO4.7H2O, 7 mg; MnSO4.H2O, 1.5 mg; CuSO4.5H2O, 390 μg; Co(NO3)2.6H2O, 250 μg, and Na2B4O7.10H2O, 180 μg. LB medium contains 1% tryptone, 0.5% yeast extract, and 1% NaCl (adjusted pH 6.8). LBH medium contains 1% tryptone and 0.5% yeast extract in HBM medium. The bacteria were grown at 30° C. in a shaker at 200 rpm. For tolerance tests, HBM or LBH agar plates containing serially increasing concentrations of an organic chemical were employed. Routinely, 20 to 40 bacterial strains were spot-transplanted with the aid of tooth pick on an agar plate, followed by incubation at 30° C. for 3 days.
Using several strains randomly chosen as representatives of 4HBA-tolerant mutants, we examined the tolerance level to various organic compounds. […] Tolerance levels to other organic compounds were also examined.

[2] = tested on: P. putida wild-type KH146-2; format: cell-based, Pseudomonas putida; settings: LBH medium, 30° C., 3 days
Method: as §1

[3] = tested on: P. putida strain no. 12 (Gen mutant); experiment: Tolerance test (MIC) on agar plates; format: cell-based, Pseudomonas putida
Method: as §1

[4] = tested on: P. putida strain no. 14 (Rif mutant); experiment: Tolerance test (MIC) on agar plates; format: cell-based, Pseudomonas putida
Method: as §1

[5] = tested on: P. putida strain no. 15 (Rif mutant); experiment: Tolerance test (MIC) on agar plates; format: cell-based, Pseudomonas putida
Method: as §1

[6] = tested on: P. putida strain no. 17 (Rif mutant); experiment: Tolerance test (MIC) on agar plates; format: cell-based, Pseudomonas putida
Method: as §1

[7] = tested on: P. putida strain no. 3 (Str mutant); experiment: Tolerance test (MIC) on agar plates; format: cell-based, Pseudomonas putida
Method: as §1

[8] = tested on: P. putida strain no. 9 (Str mutant); experiment: Tolerance test (MIC) on agar plates; format: cell-based, Pseudomonas putida
Method: as §1

[9] = tested on: P. putida strain no. 18 (Rif mutant); experiment: Tolerance test (MIC) on agar plates; format: cell-based, Pseudomonas putida; settings: LBH medium
Method: as §1

[10] = tested on: P. putida strain no. 20 (Rif mutant); experiment: Tolerance test (MIC) on agar plates; format: cell-based, Pseudomonas putida; settings: LBH medium
Method: as §1

[11] = tested on: strain no. 3 carrying plasmid pYI433 containing the wild-type rpsL gene; experiment: Complementation experiment, 4HBA-tolerance; format: cell-based, Pseudomonas putida; settings: strain no. 3 with plasmid containing the rpsL gene
Source text: (§2) To clone the rpsL gene, a 0.9-kb DNA region covering whole rpsL was amplified from the chromosomal DNA of P. putida KH146-2 using KDO DNA polymerase (Toyobo Biochemicals, Osaka). Oligonucleotide primers were designed according to the rpoC-rpsL-rpsG sequence of P. putida KT2440 (www.tigr.org); 5′-[…]-3′ (SEQ ID NO:7—nucleotides [nt]−368 to −341 upstream of rpsL) and 5′-[…]-3′ (SEQ ID NO:8—complementary to nt 107 to 135 downstream of rpsL). The amplified DNA fragments were cloned into plasmid pUC118 (Vieira and Messing, (1987) Methods Enzymol 153: 3–11) to confirm the sequence, then excised from the plasmids as a BamHI-SphI fragment using the restriction sites in the multi-cloning sequence of the vector and inserted between the BglII and SphI sites of the E. coli-Pseudomonas shuttle vector pNIT6010 carrying tet^R, a derivative of pNIT6011 (Nishijyo et al. (2001) Mol Microbiol 40:917–931). The resultant plasmid pYI433, as well as vector control pNIT6010, was introduced into the Str mutant no. 3 (str-1) by conjugation using E. coli HB101/pRK2013 as the helper (Comai et al. (1983) Plasmid 10:21–30). Fifty μg ml^−1 of tetracycline was used for selection of transformants.
(§3) […]

[12] = tested on: strain no. 3 harbouring a plasmid without rpsL; experiment: Complementation experiment, 4HBA-tolerance; format: cell-based, Pseudomonas putida
Source text: as §2, §3

[13] = tested on: Strain no. 55 (Str Gen double mutant); experiment: 4HBA tolerance after growth on LB without 4HBA; format: cell-based, Pseudomonas putida; settings: strains grown once on LB medium without 4HBA
[14] = tested on: 4HBA-adapted mutants of wild-type strain KH146-2; experiment: 4HBA tolerance by sequential adaptation; format: cell-based, Pseudomonas putida; settings: mutants obtained by step by step adaptation
Method: Wild-type strain KH146-2 was adapted, step by step, to grow in HBM medium containing increasing concentrations (from 0.8% to 5%) of 4HBA. In steps using high concentrations (>3%) of 4HBA, adaptation required a longer term incubation (7˜10 days) for each step. In certain steps, the 4HBA-adapted mutants were isolated using agar plates (containing the adapted concentrations of 4HBA), on which tolerant mutants formed big size colonies.

Rif mutant no. 17 = settings: read-out: apparent Km of 4HBA uptake, 50 to 500 μM 4HBA
Method: (§4) The method described by Thanassi et al. ((1995) J Bacteriol 177:998–1007) was used with some modifications. The bacteria were grown to mid-log phase in HBM medium containing 0.3% 4HBA, washed and resuspended in 0.3% succinate-HBM medium to give OD660=0.7. A 5 ml-aliquot of the bacterial suspension in a 100 ml flask was incubated in a shaker bath. A 0.5 μCi [carboxyl-^14C]4HBA (55 mCi mmol^−1, ARC.) with unlabelled 4HBA at increasing concentrations, were added to the 5 ml bacterial suspension and incubation was continued. At the indicated time, a 0.5 ml aliquot of sample was removed and filtered using a nitrocellulose filter (0.45 μm pore size, Millipore Corp, Bedford, Mass.) which had previously been washed with 2 ml of HBM medium containing 5 mM 4HBA. The sample was applied with a Pipetman, followed by immediate washing with 3 ml of 5 mM 4HBA-HBM medium. The membrane filter was dried, and transferred to a scintillation vial containing Brey's solution, and radioactivity was measured in scintillation spectrometer. From the rate of uptake and the concentration of 4HBA, apparent Km was determined by reciprocal plotting as described by Beman et al ((1983) J Bacteriol 156:1107–1117).
(§5) Therefore, we first grew cells to mid-log phase in HBM medium containing 0.3% 4HBA and succinate, washed, and resuspended in HBM medium containing only succinate. [^14C]4HBA was then added with unlabeled 4HBA at various (50 to 500 μM) concentrations.

Str mutant no. 3 = settings: read-out: apparent Km of 4HBA uptake, 50 to 500 μM 4HBA
Method: as §4, §5

wild-type KH146-2 = settings: read-out: apparent Km of 4HBA uptake; wild-type strain; 50 to 500 μM 4HBA
Method: as §4, §5

[15] = tested on: Str Gen double mutant no. 55; experiment: Uptake of [14C]4HBA; format: cell-based, Pseudomonas putida; settings: [14C]4HBA at 100 μM, FIG. 3
Method: as §4
(§6) Therefore, we first grew cells to mid-log phase in HBM medium containing 0.3% 4HBA and succinate, washed, and resuspended in HBM medium containing only succinate. […]

Str and Rif mutants [16] = format: cell-based, Pseudomonas putida
Method: as §4, §6

[17] = tested on: wild-type and mutant strains; experiment: Determination of protein synthesis ([14C]leucine incorporation); format: cell-based, Pseudomonas putida; settings: absence or presence (0.6 or 1.2%) of 4HBA; data not shown
KH146-2 = experiment: Organic solvent tolerance, growth in saturated LBH medium; format: cell-based, Pseudomonas putida
Str and Rif mutants [18] = experiment: as above; format: cell-based, Pseudomonas putida
[19] = HBM medium, 4HBA as a sole carbon source
[20] = LBH medium containing saturated concentrations of m-xylene
[21] = 3% MeOH-LBH medium saturated with toluene

## O=C(O)c1ccccc1I [2-iodobenzoate]
[1]
  Tolerance of mutants relative to wild-type: increased tolerance

## O=C(O)c1ccccc1Cl [2CB, 2-chlorobenzoate]
[2]
  Tolerance (MIC): 1.5 ± 0.2%
[3]; LBH medium
  Tolerance (MIC): 1.9 ± 0.3%
[4]; LBH medium
  Tolerance (MIC): 1.9 ± 0.2%
[5]; LBH medium
  Tolerance (MIC): 2.0 ± 0.2%
[6]; LBH medium
  Tolerance (MIC): 2.1 ± 0.2%
[7]; LBH medium
  Tolerance (MIC): 1.9 ± 0.2%
[8]; LBH medium
  Tolerance (MIC): 1.7 ± 0.2%
[1]
  Tolerance of mutants relative to wild-type: modest increment of tolerance

## O=C(O)c1ccccc1O [2HBA, 2-hydroxybenzoate]
[2]
  Tolerance (MIC): 0.8 ± 0.1%
[3]; LBH medium
  Tolerance (MIC): 0.8 ± 0.1%
[4]; LBH medium
  Tolerance (MIC): 0.8 ± 0.1%
[5]; LBH medium
  Tolerance (MIC): 0.8 ± 0.1%
[6]; LBH medium
  Tolerance (MIC): 0.7 ± 0.1%
[7]; LBH medium
  Tolerance (MIC): 0.9 ± 0.1%
[8]; LBH medium
  Tolerance (MIC): 0.8 ± 0.1%
[1]
  Tolerance of mutants relative to wild-type: slight or no increase of tolerance

## O=C(O)c1ccc(O)c(Br)c1 [3-bromo-4-hydroxybenzoate]
[1]
  Tolerance of mutants relative to wild-type: increased tolerance

## O=C(O)c1cccc(I)c1 [3-iodobenzoate]
[1]
  Tolerance of mutants relative to wild-type: increased tolerance

## O=C(O)c1cccc(Cl)c1 [3CB, 3-chlorobenzoate]
[2]
  Tolerance (MIC): 0.9 ± 0.1%
[3]; LBH medium
  Tolerance (MIC): 1.1 ± 0.2%
[4]; LBH medium
  Tolerance (MIC): 1.1 ± 0.2%
[5]; LBH medium
  Tolerance (MIC): 1.3 ± 0.2%
[6]; LBH medium
  Tolerance (MIC): 1.2 ± 0.1%
[7]; LBH medium
  Tolerance (MIC): 1.1 ± 0.2%
[8]; LBH medium
  Tolerance (MIC): 1.0 ± 0.2%
[1]
  Tolerance of mutants relative to wild-type: slight or no increase of tolerance

## O=C(O)c1cccc(O)c1 [3HBA, 3-hydroxybenzoate]
[2]
  Tolerance (MIC): 1.4 ± 0.1%
[3]; LBH medium
  Tolerance (MIC): 1.9 ± 0.2%
[4]; LBH medium
  Tolerance (MIC): 1.9 ± 0.1%
[5]; LBH medium
  Tolerance (MIC): 1.9 ± 0.2%
[6]; LBH medium
  Tolerance (MIC): 1.8 ± 0.3%
[7]; LBH medium
  Tolerance (MIC): 1.8 ± 0.2%
[8]; LBH medium
  Tolerance (MIC): 1.8 ± 0.1%
[1]
  Tolerance of mutants relative to wild-type: modest increment of tolerance

## O=C(O)c1ccc(Cl)cc1O [4-chlorosalicylate]
[1]
  Tolerance of mutants relative to wild-type: increased tolerance

## O=C(O)c1ccc(F)cc1 [4-fluorobenzoate]
[1]
  Tolerance of mutants relative to wild-type: increased tolerance

## O=C(O)c1ccc(O)cc1 [4HBA, 4-hydroxybenzoate]
[2]
  Tolerance (MIC): 1.4 ± 0.1%
[3]; [19]
  Tolerance (MIC): (1.6 ± 0.2) %
[3]; LBH medium
  Tolerance (MIC): 1.9 ± 0.3%
[4]; [19]
  Tolerance (MIC): (1.4 ± 0.2) %
[4]; LBH medium
  Tolerance (MIC): 1.8 ± 0.2%
[5]; [19]
  Tolerance (MIC): (1.2 ± 0.2) %
[5]; LBH medium
  Tolerance (MIC): 1.8 ± 0.2%
[6]; [19]
  Tolerance (MIC): (1.3 ± 0.1) %
[6]; LBH medium
  Tolerance (MIC): 1.8 ± 0.2%
[9]
  Tolerance (MIC): 2.0 ± 0.2%
[10]
  Tolerance (MIC): 1.9 ± 0.1%
[7]; [19]
  Tolerance (MIC): (1.7 ± 0.1) %
[7]; LBH medium
  Tolerance (MIC): 1.9 ± 0.1%
[8]; [19]
  Tolerance (MIC): (1.3 ± 0.2) %
[8]; LBH medium
  Tolerance (MIC): 1.6 ± 0.2%
[1]; the mutants, 4HBA as the sole carbon source
  minimum inhibitory concentration (MIC): 1.7%
[11]
  4HBA-tolerance: 1%
[12]
  4HBA-tolerance: 1.6%
[13]; 3% 4HBA
  Tolerance to 4HBA: still showed a tolerance
[13]; 5% 4HBA
  Growth on 4HBA-containing medium: no longer grew
[14]
  4HBA concentration tolerated: up to 5%
Rif mutant no. 17
  Km: 620 µM
Str mutant no. 3
  Km: 470 µM
wild-type KH146-2
  Km: 240 µM
[15]
  uptake of 4HBA: reduced uptake
Str and Rif mutants [16]; Str and Rif mutants vs wild-type
  Km values greater than wild-type: 2 to 3 fold
Str and Rif mutants [16]; the mutants vs wild-type strain
  apparent uptake by the membrane transport system, reduction compared to wild-type: 2 to 3 fold
[17]
  degree of suppression of protein synthesis, wild-type vs mutant strains: no difference

## O=C(O)c1cc(Cl)ccc1O [5-chlorosalicylate]
[1]
  Tolerance of mutants relative to wild-type: increased tolerance

## O=C(O)c1ccccc1 [BA, benzoic acid]
[2]
  Tolerance (MIC): 0.8 ± 0.2%
[3]; LBH medium
  Tolerance (MIC): 1.0 ± 0.1%
[4]; LBH medium
  Tolerance (MIC): 1.1 ± 0.1%
[5]; LBH medium
  Tolerance (MIC): 1.0 ± 0.1%
[6]; LBH medium
  Tolerance (MIC): 1.1 ± 0.1%
[7]; LBH medium
  Tolerance (MIC): 1.0 ± 0.1%
[8]; LBH medium
  Tolerance (MIC): 0.9 ± 0.1%
[1]
  Tolerance of mutants relative to wild-type: slight or no increase of tolerance

## CC(C)C(=O)O [isobutyrate]
[1]
  Tolerance of mutants relative to wild-type: increased tolerance

## CC(C)CC(=O)O [isovalerate]
[1]
  Tolerance of mutants relative to wild-type: increased tolerance

## Cc1cccc(C)c1 [m-xylene]
KH146-2; [20]
  growth: inhibited almost completely
Str and Rif mutants [18]; [20]
  growth: grew

## Cc1ccccc1 [toluene]
KH146-2; [21]
  growth: somewhat retarded
Str and Rif mutants [18]; [21]
  growth: grew normally

## isonicotinate
[1]
  Tolerance of mutants relative to wild-type: increased tolerance

## norvalerate
[1]
  Tolerance of mutants relative to wild-type: increased tolerance
